Drawing on patent US9556169B2, “Compounds and compositions for the treatment of parasitic diseases” (NOVARTIS AG, priority 2012, dated 2017), this text covers EC50 for 19 molecules.

Assay [1] has as its system P. falciparum (NF54 or 3D7 strain). The assay can be described thus: P. falciparum proliferation assay in infected human blood cells (SYBR Green). Format: cell-based. As to conditions: Plasmodium falciparum, Erythrocyte, read-out: EC50 (nM), inhibitory efficacy in delaying P. falciparum proliferation in infected human blood cells. Here is the method:
Assay for P. falciparum Proliferation in Infected Human Blood Cells
Compounds of the invention can be assayed to measure their capacity to inhibit proliferation of P. falciparum parasitemia in infected red blood cells. This parasite proliferation assay measures the increase in parasite DNA content using a DNA intercalating dye, SYBR Green® (INVITROGEN®) which has a high affinity for double stranded DNA.
NF54 or 3D7 P. falciparum strain is grown in complete culturing media until parasitemia reaches 3% to 8% with O+ human erythrocytes. […] 20 μl of screening media is dispensed into 384 well assay plates. 50 nl of compounds of the invention (in DMSO), including antimalarial controls (mefloquine, pyrimethamine and artemisinin), are then transferred into the assay plates, as well as DMSO alone to serve as a negative control for inhibition. Then 30 μl of a suspension of a NF54 or 3D7 P. falciparum infected erythrocytes in screening media is dispensed into the assay plates such that the final hematocrit is 2.5% with a final parasitemia of 0.3%. The plates are placed in a 37° C. incubator for 72 hours in a low oxygen environment containing 93% N2, 4% CO2, and 3% O2 gas mixture. 10 μl of lysis buffer (saponin, triton-X, EDTA) containing a 10× solution of SYBR Green I® in RPMI media is dispensed into the plates. The plates are lidded and kept at room temperature overnight for the lysis of the infected red blood cells. The fluorescence intensity is measured (excitation 425 nm, emission 530 nm) using the Envision™ system (Perkin Elmer). The percentage inhibition of 50%, EC50, is calculated for each compound.

For assay [2], the system named is Plasmodium berghei line expressing luciferase (Pb-luc) sporozoites. The assay can be described thus: Liver stage P. berghei luciferase proliferation assay in CD81-GFP-HepG2 cells. Particulars: values marked * in Table 2, CD81-GFP-HepG2 cells, 48 h, luminescence, read-out: EC50 (nM), P. berghei luciferase Proliferation Assay. Format: cell-based. Here is the method:
Liver Stage P. berghei Luciferase Proliferation Assay
CD81-GFP-HepG2 cells (obtained from the lab of Dominique Mazier) were seeded into GNF custom Greiner plates (1536-well, white, TC-treated, solid bottom). A final density of 3000 cells/well was achieved by dispensing 5 ul per well of a 600,000 cells/mL resuspended in Assay Media (AM; phenol-red free DMEM, 2% FBS, 5×PSG) via a MicroFlo (Biotek; 5 ul dispense cassette). The seeded assay plates were incubated overnight at 37° C. in an incubator with 5% CO2. The following day, a 10 nL volume of compound was transferred acoustically (ECHO 525, Labcyte Inc.) to each well in the assay plate. Sporozoite forms of a Plasmodium berghei line expressing luciferase (Pb-luc) were dissected and purified from infected Anopheles stephensi mosquitoes (provided by the NYU insectary) as previously described by Meister et al. (Science, 2011). Purified sporozoites (spz) were stored at 250 spz/uL in chilled PBS supplemented with 3% BSA. 3 uL of Pb-luc spz solution was dispensed to each assay well using a Bottlevalve equipped with a custom, single-tip dispense head (GNF Systems). Assay plates were centrifuged at 330×g for 3 minutes to pellet the spz, then the assay plates were returned to the 37° C. incubator for 48 h. Luciferase signal, which corresponds with parasite proliferation, was detected by adding 2 uL of BrightGlo (Promega) to each well using the MicroFlo (Biotek; 1 ul cassette). Luminescence was immediately measured on an Envision MultiLabel Plate Reader (PerkinElmer).

The mark [3] stands for this setting: infected human erythrocytes, 72 hours, SYBR Green fluorescence.

Like-named read-outs stand apart in the source and are kept apart here.

Consider `CNC(=O)c1ccc(-c2cnn3ccc(C(=O)N(c4ccc(C#N)cc4)C4CCC4)cc23)cn1` [Example 145, N-(4-Cyanophenyl)-N-cyclobutyl-3-(6-(methylcarbamoyl)pyridin-3-yl)pyrazolo[1,5-a]pyridine-5-carboxamide], for which the EC50 came to 12 nM in assay [1] (setting [3]) and 8 nM in assay [2].

As for `CNC(=O)c1ccc(-c2cnn3ccc(C(=O)N(c4ccc(C#N)cc4)C(C)C)cc23)cn1` [Example 146, N-(4-Cyanophenyl)-N-isopropyl-3-(6-(methylcarbamoyl)pyridin-3-yl)pyrazolo[1,5-a]pyridine-5-carboxamide], the EC50 in assay [1] (setting [3]) came out at 45 nM; in assay [2], 20 nM.

On to `CNC(=O)c1ccc(-c2cnn3ccc(N(C(=O)c4ccc(C#N)cn4)C4CC4)cc23)cc1` [Example 147, 5-Cyano-N-cyclopropyl-N-(3-(4-(methylcarbamoyl)phenyl)pyrazolo[1,5-a]pyridin-5-yl) picolinamide], for which the EC50 in assay [1] (setting [3]) is 814 nM; in assay [2], 151 nM.

For the molecule `CNC(=O)c1ccc(-c2cnn3ccc(C(=O)N(c4ccc(C#N)cn4)C(C)C)cc23)cn1` [Example 148, N-(5-Cyanopyridin-2-yl)-N-isopropyl-3-(6-(methylcarbamoyl)pyridin-3-yl)pyrazolo[1,5-a]pyridine-5-carboxamide], the EC50 in assay [1] (setting [3]) came to 67 nM; in assay [2] it was 18 nM.

On to `CNC(=O)c1ccc(-c2cnn3ccc(C(=O)N(c4ccc(C#N)c(OC)n4)C4CC4)cc23)cc1` [Example 149, N-(5-Cyano-6-methoxypyridin-2-yl)-N-cyclopropyl-3-(4-(methylcarbamoyl)phenyl)pyrazolo[1,5-a]pyridine-5-carboxamide], for which the EC50 came to 4 nM in assay [1] (setting [3]) and 1 nM in assay [2].

Turning to `CCN(C(=O)c1ccn2ncc(-c3ccc(C(=O)NC)nc3)c2c1)c1ccc(C#N)cn1` [Example 150, N-(5-cyanopyridin-2-yl)-N-ethyl-3-(6-[methylcarbamoyl]pyridin-3-yl)pyrazolo[1,5-a]pyridine-5-carboxamide], the EC50 in assay [1] (setting [3]) came to 51 nM; in assay [2], 19 nM.

For the molecule `CNC(=O)c1ccc(-c2cnn3ccc(C(=O)N(c4ccc(F)cn4)C(C)C)cc23)cc1` [Example 151, N-(5-fluoropyridin-2-yl)-N-isopropyl-3-(4-(methylcarbamoyl)phenyl)pyrazolo[1,5-a]pyridine-5-carboxamide], the EC50 was 67 nM in assay [1] (setting [3]) and 7 nM in assay [2].

Consider `CNC(=O)c1ccc(-c2cnn3ccc(C(=O)N(c4ccc(C(F)(F)F)cn4)C(C)C)cc23)cn1` [Example 152, N-Isopropyl-3-(6-(methylcarbamoyl)pyridin-3-yl)-N-(5-(trifluoromethyl)pyridin-2-yl)pyrazolo[1,5-a]pyridine-5-carboxamide], for which the EC50 in assay [1] (setting [3]) stood at 228 nM; in assay [2], 182 nM.

On to `CNC(=O)c1ccc(-c2cnn3ccc(C(=O)N(c4ccc(C(F)(F)F)cn4)C(C)C)cc23)cc1` [Example 153, N-Isopropyl-3-(4-(methylcarbamoyl)phenyl)-N-(5-(trifluoromethyl)pyridin-2-yl)pyrazolo[1,5-a]pyridine-5-carboxamide], for which the EC50 in assay [1] (setting [3]) turned out to be 88 nM; in assay [2], 16 nM.

With `CNC(=O)c1ccc(-c2cnn3ccc(C(=O)N(c4ccc(C#N)cn4)C(C)C)cc23)nc1` [Example 154, N-(5-cyanopyridin-2-yl)-N-isopropyl-3-(5-(methylcarbamoyl)pyridin-2-yl)pyrazolo[1,5-a]pyridine-5-carboxamide], the EC50 in assay [1] (72 h) came out at 200 nM; in assay [2] it was 36 nM.

With `CNC(=O)c1ccc(-c2cnn3ccc(C(=O)N(c4ccc(C#N)cn4)C4CCC4)cc23)nc1` [Example 155, N-(5-Cyanopyridin-2-yl)-N-cyclobutyl-3-(5-(methylcarbamoyl)pyridin-2-yl)pyrazolo[1,5-a]pyridine-5-carboxamide], the EC50 in assay [1] (72 h) turned out to be 82 nM; in assay [2], 21 nM.

Regarding `CNC(=O)c1ccc(-c2cnn3ccc(C(=O)N(c4ccc(F)cn4)C(C)C)cc23)cn1` [Example 156, N-(5-fluoropyridin-2-yl)-N-isopropyl-3-(6-(methylcarbamoyl)pyridin-3-yl)pyrazolo[1,5-a]pyridine-5-carboxamide], the EC50 in assay [1] (setting [3]) was 210 nM; in assay [2], 54 nM.

Regarding `CCN(C(=O)c1ccn2ncc(-c3ccc(C(=O)NC)nc3)c2c1)c1ccc(C(F)(F)F)cn1` [Example 157, N-ethyl-3-(6-(methylcarbamoyl)pyridin-3-yl)-N-(5-(trifluoromethyl)pyridin-2-yl)pyrazolo[1,5-a]pyridine-5-carboxamide], the EC50 in assay [1] (setting [3]) stood at 91 nM; in assay [2], 60 nM.

Consider `CCN(C(=O)c1ccn2ncc(-c3ccc(S(C)(=O)=O)cc3)c2c1)c1ccc(C#N)cn1` [Example 158, N-(5-cyanopyridin-2-yl)-N-ethyl-3-(4-(methylsulfonyl)phenyl)pyrazolo[1,5-a]pyridine-5-carboxamide], for which the results for the EC50 in assay [1] (setting [3]) and in assay [2] were 111 nM and 11 nM, respectively.

Turning to `CCN(C(=O)c1ccn2ncc(-c3ccc(C(=O)NC)nc3)c2c1)c1ccc(F)cn1` [Example 159, N-ethyl-N-(5-fluoropyridin-2-yl)-3-(6-(methylcarbamoyl)pyridin-3-yl)pyrazolo[1,5-a]pyridine-5-carboxamide], the results for the EC50 in assay [1] (setting [3]) and in assay [2] were 56 nM and 43 nM, respectively.

With `CNC(=O)c1ccc(-c2cnn3ccc(C(=O)N(c4ccc(C(F)(F)F)cn4)C4CCC4)cc23)cc1` [Example 160, N-cyclobutyl-3-(4-(methylcarbamoyl)phenyl)-N-(5-(trifluoromethyl)pyridin-2-yl)pyrazolo[1,5-a]pyridine-5-carboxamide], the EC50 in assay [1] (setting [3]) and in assay [2] was 4 nM in each case.

Turning to `CNC(=O)c1ccc(-c2cnn3ccc(C(=O)N(c4ccc(C(F)(F)F)cn4)C4CCC4)cc23)cn1` [Example 161, N N-cyclobutyl-3-(6-(methylcarbamoyl)pyridin-3-yl)-N-(5-(trifluoromethyl)pyridin-2-yl)pyrazolo[1,5-a]pyridine-5-carboxamide], the EC50 in assay [1] (setting [3]) was 68 nM; in assay [2], 41 nM.

For `CCN(C(=O)c1ccn2ncc(-c3ccc(C(=O)NC)cc3)c2c1)c1ccc(C#N)c(OCCO)n1` [Example 162, N-(5-cyano-6-(2-hydroxyethoxyl)pyridin-2-yl)-N-ethyl-3-(4-(methylcarbamoyl)phenyl)pyrazolo[1,5-a]pyridine-5-carboxamide], the EC50 in assay [1] (setting [3]) turned out to be 9 nM; in assay [2] it was 8 nM.

On to `CNC(=O)c1ccc(-c2cnn3ccc(S(=O)(=O)N(C)c4ccc(C#N)cn4)cc23)cc1` [Example 163, 4-(5-(N-(5-Cyanopyridin-2-yl)-N-methylsulfamoyl)pyrazolo[1,5-a]pyridin-3-yl)-N-methyl benzamide], for which the values for the EC50 in assay [1] (setting [3]) and in assay [2] were 4 nM and 2 nM, respectively.
